One test relates to HK-2 cells. Description: Cisplatin-induced apoptosis in HK-2 cells (Annexin V staining). It counts as cell-based, human. The following applies: 10 uM cisplatin, 500 uM compound, prophylactic or therapeutic. The procedure:
Apoptosis and cell viability are quantified using AnnexinV-FITC and propidium iodide staining of HK-2 cells following cisplatin treatment. Immortalized PTEC-derived HK-2 cells (ATCC number CRL-2190) are cultured in serum-free keratinocyte medium (GIBCO number 17005-042) supplemented with EGF and BPE for 48 hours (Ryan et al. 1994 Kidney Int 45:48-57). Medium is aspirated and cells are washed with PBS and incubated in the dark for 15 min at room temperature with 10 μl of media binding agent and 1.25 μl of FITC conjugated AnnexinV. Propidium iodide (10 μl) is added, and samples are analyzed immediately. Quantification of Annexin V-FITC and propidium iodide signals is performed by fluorescence microscopy (Axiovert 135; Carl Zeiss). Phase contrast images are observed using transmitted light. Apoptotic cells show cytoplasmic staining and viable cells remain unstained (FIG. 17).

For test [1], the system named is HK-2 (Human Kidney-2) cells. Description: HK-2 cell culture, TNF-alpha induced cytokine and adhesion molecule production (ELISA). The format is cell-based. The following applies: proximal tubule cells. On the procedure: Injury of PTEC by TNF-α and cisplatin (an anti-neoplastic agent) results in the induction of apoptosis, as shown by DNA damage, mitochondial disfunction, BAX […] and caspase activation. BMP-7 protects PTEC/kidney function by inhibiting TNF-α and cisplatin-induced apoptosis in these cells. The immortalized PTEC-derived HK-2 (Human Kidney-2) cells (ATCC number CRL-2190) were grown in serum-free keratinocyte medium (GIBCO number 17005-042) supplemented with epidermal growth factor (EGF: 5 ng/mL) and bovine pituitary extract (40 ug/mL) for 48 hours as described previously (Ryan et al. (1994) Kidney International 45:48-57). Cells were transferred to 24-well plates at a density of 3×10^5 cells per well. After 24 hours, cells were incubated with fresh medium containing TNF-alpha (5 ng/mL) for 20 hours. Controls received medium alone. Then cells were washed twice with fresh culture medium and further incubated with culture medium alone (medium control, and TNF control wells) or TDF-1 at three different concentrations (40, 200 or 1000 ng/mL) or TDFRP compounds at three different concentrations (4, 20 or 100 uM) for sixty hours. During incubation, cells were kept in a 5% CO2 humid atmosphere at 37° C. […] The concentrations of IL-6, IL-8 and sICAM-1 in culture supernatants were measured by specific ELISA (FIG. 14). […]
For orientation: ELISA stands for enzyme-linked immunosorbent assay.

Positions of bridges follow the written chain, without caps; N, C: chain ends. No end group written: not given here.

“CYFDDSSNVLCKKYRS (disulfide 1-11 (inferred); not fully specified) [SEQ ID NO:45]”: the cisplatin-induced apoptosis entry in the test on HK-2 cells was “inhibits”. Moreover, the “TNF-alpha induced inflammatory response (increase in IL-6)” value in test [1] is “alleviate”.
